Values of other authors as cited in patent US20240238452A1, “STAINING AGENT FOR GASTROINTESTINAL MUCOSA AND PREPARATION METHOD THEREFOR” (BEIJING COMPONT MEDICAL DEVICES CO., LTD., priority 2023, published 2024).

How the values were obtained:
[1] = International Journal of Toxicology 2010
[2] = EFSA report 2009

Row | SMILES | safety: acute oral, short-term skin, subchronic skin, heredity and other aspects [1] | allowable daily intake (ADI) [2]
1 | Cc1ccc(Nc2ccc(O)c3c2C(=O)c2ccccc2C3=O)c(S(=O)(=O)[O-])c1.[Na+] [acid violet 43] | no abnormal report | –
2 | COc1cc(S(=O)(=O)[O-])c(C)cc1N=Nc1c(O)ccc2cc(S(=O)(=O)[O-])ccc12.[Na+].[Na+] [allure red] | – | 7 mg/kg·bw/day
3 | O=C1/C(=C2\Nc3ccc(S(=O)(=O)[O-])cc3C2=O)Nc2ccc(S(=O)(=O)[O-])cc21.[Na+].[Na+] [indigo carmine, reference compound] | – | 5 mg/kg·bw/day
